The subject of test [1] is human neutrophils. Kind of test: Random migration of neutrophils on FN-coated cover glass (live-cell imaging). It counts as cell-based. Particulars: for reversal of the inhibitory effect of rhAPC on neutrophil migration: agonists of PAR-1 and S1P1; for random migration of neutrophils on FN induced by fMLP: 10 μg/ml protein. As to the method:
Delta T dishes were coated with human FN (50 μg/ml, BD Biosciences, San Jose, Calif.) for overnight at 4° C. and then for 4 h at room temperature. Plates were then rinsed with L-15 media. […] The cells were then added to FN-coated dishes in 1.5 ml of L-15 with 2 mg/ml of glucose. For neutrophil live cell staining, 2 μM Green Cell Tracker CMFDA (5-chloromethylfluorescein diacetate; Molecular Probes, Carlsbad, Calif.) was used. Temperature was maintained at 37° C. throughout the experiment using a FCS2 live-cell imaging chamber (Bioptechs, Butler, Pa.). Images were acquired for 30 to 60 minutes under a 10× objective lens using a Nikon TE-2000U inverted microscope. Phase contrast images were acquired every 5 seconds and fluorescence images every 30 seconds. Cell paths were traced using MetaVue™ imaging software (Molecular Devices Corporation, Downingtown, Pa.).
Random migration was investigated by adding fMLP or IL-8 to media at a final concentration of 10^−8M and analyzed by manually tracing the outline of each cell in selected frames (i.e., at 50 second intervals). The x and y coordinates of each cell were measured using ImageJ software and were corrected so that the starting position was x=0 and y=0.
The time-lapsed images of migrating neutrophils were taken under phase contrast microscopy. Each image was thresholded and binarized based on brightness to define the centroids of the neutrophils. The closest centroids between consecutive images were linked as a trajectory under the assumption that these centroids were made by the same neutrophil. The maximum distance between the closest centroids was also defined to preclude the artifacts due to cells moving into and out of the field of view.

In test [2] the test system is human neutrophils. Put plainly: Neutrophil adhesion assay on immobilized fibronectin (FN). It counts as cell-based. Particulars: 10 μg/ml protein. The protocol:
The adhesion assay was carried out essentially as described (Vorup-Jensen et al., PNAS 102:1614 (2005)). Cover slips were coated with FN in coating buffer (150 mM NaCl/20 mM Tris.HCl, pH 9.0) for over night at 4° C. and for 4 hours at room temperature. Residual binding sites were blocked by incubation of the wells with 0.05% (wt/vol) polyvinylpyrrolidone in PBS for 30 minutes at room temperature. […] The cover slips were aspirated, and washed with L15 medium. […] Cells (250 μl) were then immediately added, and further incubated at 37° C. for 15 minutes. Unbound cells were then washed with warm L15 medium. The bound cells were then fixed with formaldehyde. For each experimental condition from three independent donors, five random phase-contrast images were obtained, and the number of cells in each well was scored from printed micrographs.

The target in a further test is T1, α5β1 (Homo sapiens, UniProt P05556+P08648).
T1 construct: purchased US Biological, Swampscott, Mass
T1 sequence (P08648 42-894 limits assumed): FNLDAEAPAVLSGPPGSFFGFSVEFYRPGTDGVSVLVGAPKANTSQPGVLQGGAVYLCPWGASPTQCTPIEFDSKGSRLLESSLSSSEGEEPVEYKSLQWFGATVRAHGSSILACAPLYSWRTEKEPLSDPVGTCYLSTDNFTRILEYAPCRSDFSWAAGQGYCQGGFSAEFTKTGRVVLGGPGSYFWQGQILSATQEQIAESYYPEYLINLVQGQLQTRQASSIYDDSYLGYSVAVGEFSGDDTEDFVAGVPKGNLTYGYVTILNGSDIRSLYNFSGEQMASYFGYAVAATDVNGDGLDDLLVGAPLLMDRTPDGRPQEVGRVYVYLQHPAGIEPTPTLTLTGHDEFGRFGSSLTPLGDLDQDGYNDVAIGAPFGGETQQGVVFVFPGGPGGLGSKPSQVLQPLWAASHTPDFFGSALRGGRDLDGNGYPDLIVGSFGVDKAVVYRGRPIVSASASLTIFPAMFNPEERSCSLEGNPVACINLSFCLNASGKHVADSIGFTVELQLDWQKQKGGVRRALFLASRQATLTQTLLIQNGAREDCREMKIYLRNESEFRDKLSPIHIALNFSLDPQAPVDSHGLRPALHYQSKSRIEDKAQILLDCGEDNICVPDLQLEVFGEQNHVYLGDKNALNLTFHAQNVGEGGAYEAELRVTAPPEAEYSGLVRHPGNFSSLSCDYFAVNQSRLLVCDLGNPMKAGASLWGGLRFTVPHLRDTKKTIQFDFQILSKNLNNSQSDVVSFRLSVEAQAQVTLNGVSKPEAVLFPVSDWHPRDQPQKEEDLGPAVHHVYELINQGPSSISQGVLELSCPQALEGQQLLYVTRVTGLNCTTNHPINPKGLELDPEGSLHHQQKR
T1 sequence (P08648 895-1049 partner limits assumed): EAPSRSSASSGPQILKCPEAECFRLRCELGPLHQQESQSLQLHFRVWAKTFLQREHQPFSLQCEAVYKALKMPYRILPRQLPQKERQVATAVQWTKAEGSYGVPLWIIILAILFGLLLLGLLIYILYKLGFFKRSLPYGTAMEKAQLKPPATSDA
T1 sequence (P05556 21-798): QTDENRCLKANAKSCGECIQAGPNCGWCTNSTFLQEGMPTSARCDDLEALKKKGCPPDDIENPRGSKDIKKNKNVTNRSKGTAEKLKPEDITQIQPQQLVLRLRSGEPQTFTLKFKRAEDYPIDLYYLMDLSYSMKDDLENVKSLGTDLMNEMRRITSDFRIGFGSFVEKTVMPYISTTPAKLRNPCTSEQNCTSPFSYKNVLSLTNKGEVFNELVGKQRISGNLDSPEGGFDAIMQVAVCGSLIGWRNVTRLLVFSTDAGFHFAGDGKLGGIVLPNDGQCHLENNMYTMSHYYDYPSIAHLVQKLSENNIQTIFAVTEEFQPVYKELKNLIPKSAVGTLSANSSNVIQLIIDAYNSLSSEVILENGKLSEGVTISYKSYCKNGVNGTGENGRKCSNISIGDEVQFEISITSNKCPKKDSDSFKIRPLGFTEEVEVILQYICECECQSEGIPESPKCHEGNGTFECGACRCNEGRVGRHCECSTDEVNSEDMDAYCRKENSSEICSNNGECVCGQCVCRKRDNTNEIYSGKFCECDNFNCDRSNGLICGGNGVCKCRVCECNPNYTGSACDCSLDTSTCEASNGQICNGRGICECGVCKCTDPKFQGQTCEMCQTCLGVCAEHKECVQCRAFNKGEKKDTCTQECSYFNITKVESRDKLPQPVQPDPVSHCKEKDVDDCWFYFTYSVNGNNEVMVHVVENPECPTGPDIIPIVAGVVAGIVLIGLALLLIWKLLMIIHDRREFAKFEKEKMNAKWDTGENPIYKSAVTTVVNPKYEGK
Put plainly: Solid phase integrin ligand binding assay. Particulars: 1 mM Mn2+, 1 mM Ca2+, 1 mM Mg2+. The protocol:
(§1) The solid phase binding assay was performed using purified soluble human α3β1, α5β1, and αVβ3 (US Biological, Swampscott, Mass.). Two (2) μg/ml of soluble integrins were added to microtiter wells for capture with immobilized monoclonal antibody against β1 or β3 subunits (mAb TS2/6 for β1 and mAb BB10 (Chemicon, Temecula, Calif.) for β3 integrins). […] After washing, bound APC was chromogenically detected by peroxidase-streptavidin conjugate anti-PC (Diapharma, West Chester, Ohio) or chromogenic substrate S-2366 (Diapharma, West Chester, Ohio). To minimize dissociation, all wash buffers contained 1 mM Mn^2+, and <15 minutes elapsed between the end of binding and beginning of color development. Functional blocking antibodies for integrins were from Chemicon (Temecula, Calif.).
(§2) Among the neutrophil integrins that recognize the RGD motif, α3β1, α5β1, and αVβ3 are key in regulating neutrophil chemotaxis (Yauch et al., Mol. Biol. Cell 9:2751 (1998); Burns et al., J. Immunol. 166:4644 (2001); Sixt et al., J. Biol. Chem. 276:18878 (2001)). To test whether APC can bind directly to the integrins, an ELISA-like solid phase receptor-binding assay was performed (FIG. 2E). Soluble α3β1, α5β1, and αVβ3 were captured onto microtiter wells using mAbs specific for β1 or β3.

The target in another test is T2, αVβ3 (Homo sapiens, UniProt P05106+P06756).
T2 construct: purchased US Biological, Swampscott, Mass
T2 sequence (P06756 31-889 limits assumed): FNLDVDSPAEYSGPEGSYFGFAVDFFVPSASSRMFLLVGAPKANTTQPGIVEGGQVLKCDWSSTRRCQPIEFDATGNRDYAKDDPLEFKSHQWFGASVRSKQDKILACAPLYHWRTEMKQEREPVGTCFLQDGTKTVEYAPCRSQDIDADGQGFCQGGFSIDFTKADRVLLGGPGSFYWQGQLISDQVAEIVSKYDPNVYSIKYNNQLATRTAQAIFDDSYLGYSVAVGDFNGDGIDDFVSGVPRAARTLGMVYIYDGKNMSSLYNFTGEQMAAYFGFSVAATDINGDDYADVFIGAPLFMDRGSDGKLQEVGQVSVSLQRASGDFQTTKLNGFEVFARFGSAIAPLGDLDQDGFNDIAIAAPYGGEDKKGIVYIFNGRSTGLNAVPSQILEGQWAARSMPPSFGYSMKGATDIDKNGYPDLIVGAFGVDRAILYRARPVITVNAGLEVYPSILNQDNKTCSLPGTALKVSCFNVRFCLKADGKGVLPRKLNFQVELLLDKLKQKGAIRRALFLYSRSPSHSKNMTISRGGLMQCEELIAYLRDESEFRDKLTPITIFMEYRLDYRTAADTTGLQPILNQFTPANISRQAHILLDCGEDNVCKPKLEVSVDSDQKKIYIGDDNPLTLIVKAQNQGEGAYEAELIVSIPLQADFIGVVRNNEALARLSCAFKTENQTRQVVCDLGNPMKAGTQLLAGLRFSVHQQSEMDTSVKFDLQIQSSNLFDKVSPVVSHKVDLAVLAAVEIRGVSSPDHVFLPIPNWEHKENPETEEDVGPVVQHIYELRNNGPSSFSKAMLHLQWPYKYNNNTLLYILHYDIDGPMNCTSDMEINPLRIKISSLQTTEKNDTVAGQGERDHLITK
T2 sequence (P06756 891-1048 partner limits assumed): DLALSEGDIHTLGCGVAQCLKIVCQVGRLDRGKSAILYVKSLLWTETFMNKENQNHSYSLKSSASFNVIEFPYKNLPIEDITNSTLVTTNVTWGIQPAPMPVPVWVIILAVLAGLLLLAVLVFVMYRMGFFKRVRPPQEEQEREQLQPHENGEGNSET
T2 sequence (P05106 27-788): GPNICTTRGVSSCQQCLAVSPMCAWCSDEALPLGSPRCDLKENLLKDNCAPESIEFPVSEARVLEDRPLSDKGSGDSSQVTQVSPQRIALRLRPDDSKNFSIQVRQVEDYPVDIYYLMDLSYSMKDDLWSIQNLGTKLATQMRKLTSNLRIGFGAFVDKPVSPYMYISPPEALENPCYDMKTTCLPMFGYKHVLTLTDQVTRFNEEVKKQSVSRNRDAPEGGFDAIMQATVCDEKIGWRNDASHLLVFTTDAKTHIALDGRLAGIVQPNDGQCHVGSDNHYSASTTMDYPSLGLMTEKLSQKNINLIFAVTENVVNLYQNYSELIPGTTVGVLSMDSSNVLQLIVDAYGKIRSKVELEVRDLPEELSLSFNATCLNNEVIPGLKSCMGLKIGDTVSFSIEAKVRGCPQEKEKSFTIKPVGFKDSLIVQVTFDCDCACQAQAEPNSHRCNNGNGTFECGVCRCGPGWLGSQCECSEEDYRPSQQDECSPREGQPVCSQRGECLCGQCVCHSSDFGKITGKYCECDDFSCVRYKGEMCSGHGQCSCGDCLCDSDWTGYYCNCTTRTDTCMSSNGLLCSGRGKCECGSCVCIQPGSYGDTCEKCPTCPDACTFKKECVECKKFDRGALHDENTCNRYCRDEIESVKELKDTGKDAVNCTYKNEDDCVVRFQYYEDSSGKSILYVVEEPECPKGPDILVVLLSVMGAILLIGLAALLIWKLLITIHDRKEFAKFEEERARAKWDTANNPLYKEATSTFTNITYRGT
Kind of test: Solid phase integrin ligand binding assay. Particulars: 1 mM Mn2+, 1 mM Ca2+, 1 mM Mg2+. The protocol:
as §1, §2

In another test the target is T3, α3β1 (Homo sapiens, UniProt P05556+P26006).
T3 construct: purchased US Biological, Swampscott, Mass
T3 sequence (P26006 33-872 limits assumed): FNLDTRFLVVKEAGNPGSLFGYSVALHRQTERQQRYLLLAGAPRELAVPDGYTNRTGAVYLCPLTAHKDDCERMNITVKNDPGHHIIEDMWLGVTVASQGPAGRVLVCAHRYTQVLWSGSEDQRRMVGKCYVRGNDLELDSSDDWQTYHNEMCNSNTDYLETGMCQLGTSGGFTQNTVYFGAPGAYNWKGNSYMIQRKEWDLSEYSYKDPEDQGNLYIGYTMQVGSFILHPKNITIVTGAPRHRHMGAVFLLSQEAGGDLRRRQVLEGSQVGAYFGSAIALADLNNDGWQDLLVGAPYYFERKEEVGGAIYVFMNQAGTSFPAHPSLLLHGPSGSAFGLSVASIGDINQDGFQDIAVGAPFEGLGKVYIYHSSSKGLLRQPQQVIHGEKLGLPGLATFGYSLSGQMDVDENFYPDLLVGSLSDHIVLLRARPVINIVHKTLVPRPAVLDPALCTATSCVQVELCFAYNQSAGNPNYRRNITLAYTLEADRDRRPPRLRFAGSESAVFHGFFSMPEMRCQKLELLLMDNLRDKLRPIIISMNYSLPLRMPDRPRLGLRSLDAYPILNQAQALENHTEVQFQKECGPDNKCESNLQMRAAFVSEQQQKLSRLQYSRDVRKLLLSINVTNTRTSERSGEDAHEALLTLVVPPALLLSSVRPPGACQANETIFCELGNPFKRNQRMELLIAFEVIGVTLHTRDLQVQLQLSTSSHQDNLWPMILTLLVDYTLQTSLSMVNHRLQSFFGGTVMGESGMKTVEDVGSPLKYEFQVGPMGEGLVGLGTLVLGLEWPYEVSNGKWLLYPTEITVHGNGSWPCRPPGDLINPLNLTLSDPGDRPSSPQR
T3 sequence (P26006 876-1051 partner limits assumed): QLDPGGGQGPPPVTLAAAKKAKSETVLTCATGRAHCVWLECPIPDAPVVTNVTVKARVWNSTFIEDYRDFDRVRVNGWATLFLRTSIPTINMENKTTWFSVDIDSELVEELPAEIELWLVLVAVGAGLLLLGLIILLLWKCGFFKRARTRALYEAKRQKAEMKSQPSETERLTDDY
T3 sequence (P05556 21-798): as the sequence (P05556 21-798) above
Put plainly: Solid phase integrin ligand binding assay. Particulars: 1 mM Mn2+, 1 mM Ca2+, 1 mM Mg2+. As to the method:
as §1, §2

From US8916149B2, “Preventing and treating sepsis” (University of Rochester, priority 2008, dated 2014) come the findings set out here.

For `FC(F)(F)c1cccc(-c2noc(-c3cc(-c4ccccc4)c(C(F)(F)F)s3)n2)c1` [SEW2871, reference compound], the “reversal of the inhibitory effect of rhAPC on neutrophil migration” value in the test with human neutrophils [1] was “did not reverse”.
Turning to “SFLLRNPNDKYEPF (Aritficial Sequence) [reference compound]”, the “reversal of the inhibitory effect of rhAPC on neutrophil migration” value with human neutrophils [1] was “did not reverse”.
As for “rhPC: the zymogen protein C, not activated [reference compound]”, the “fMLP-induced adhesion of human neutrophils to immobilized FN” value in the test with human neutrophils [2] is recorded as “failed to block”. In addition, in the test on human neutrophils [1], the “random migration of neutrophils on FN induced by fMLP” value is recorded as “failed to block”.

B1: RGE-APC: rhAPC mutant with the RGD sequence mutated to RGE (Glu in place of Asp-222) (protein)
chain 1: ANSFLEELRHSSLERECIEEICDFEEAKEIFQNVDDTLAFWSKHVDGDQCLVLPLEHPCASLCCGHGTCIDGIGSFSCDCRSGWEGRFCQREVSFLNCSLDNGGCTHYCLEEVGWRRCSCAPGYKLGDDLLQCHPAVKFPCGRPWKRMEKKRSHL
chain 2: LIDGKMTRRGESPWQVVLLDSKKKLACGAVLIHPSWVLTAAHCMDESKKLLVRLGEYDLRRWEKWELDLDIKEVFVHPNYSKSTTDNDIALLHLAQPATLSQTIVPICLPDSGLAERELNQAGQETLVTGWGYHSSREKEAKRNRTFVLNFIKIPVVPHNECSEVMSNMVSENMLCAGILGDRQDACEGDSGGPMVASFHGTWFLVGLVSWGEGCGLLHNYGVYTKVSRYLDWIHGHIRDKEAPQKSWAP
Consider B1, for which the “random migration of neutrophils on FN induced by fMLP” value in the test on human neutrophils [1] was “had no effect”. In addition, the “direct binding to soluble α5β1” value with α5β1 is “significantly less”. In addition, the “direct binding to soluble αVβ3” value with αVβ3 is “significantly less”. The “direct binding to soluble α3β1” value with α3β1 was “significantly less”.
